Laboratory results: US12162901B2, “N-acetylated sialic acids and related sialosides” (priority 2016, dated 2024)

What was measured:
[1] = biological target: bovine coronavirus hemagglutinin-esterase (BCoV-Mebus-Fc, esterase inactivated) (Bovine coronavirus, UniProt P15776, S40A); test: Sialoglycan microarray binding of BCoV-Mebus-Fc (esterase inactive); details: without esterase treatment (FIG. 3A)
BJA-B K20 cells = test: Feeding of free sialic acids to BJA-B K20 cells, PToV probes, flow cytometry; format: cell-based, human; details: 1 mM, three days; PToV with active esterase

Row | SMILES | binding of BCoV on glycan microarray [1] | resistance of cell surface sialic acid to virus-hemagglutinin-esterase activity (BJA-B K20 cells)
1 | CC(=O)NC[C@@H](O)[C@@H](O)[C@@H]1O[C@@](O[C@H]2[C@@H](O)[C@@H](CO)O[C@@H](O[C@H]3[C@H](O)[C@@H](O)[C@H](OCCCN)O[C@@H]3CO)[C@@H]2O)(C(=O)O)C[C@H](O)[C@H]1NC(C)=O [Neu5Ac9NAcα3Galβ4GlcβProNH2, 3-Aminopropyl O-(5,9-Diacetamido-3,5,9-trideoxy-D-glycero-α-D-galacto-2-nonulopyranosylonic acid)-(2→3)-O-β-D-galactopyranosyl-(1→4)-β-D-glucopyranoside] | prefer binding | –
2 | CC(=O)NC[C@@H](O)[C@@H](O)[C@@H]1OC(O)(C(=O)O)C[C@H](O)[C@H]1NC(C)=O (stereo partly drawn) [Neu5Ac9NAc, 5,9-Diacetamido-3,5,9-Trideoxy-D-glycero-D-galacto-2-nonulopyranosylonic Acid] | – | resistant to virus-hemagglutinin-esterase activity
3 | CC(=O)N[C@H]1[C@H]([C@H](O)[C@H](O)COC(C)=O)O[C@@](O[C@H]2[C@@H](O)[C@@H](CO)O[C@@H](O[C@H]3[C@H](O)[C@@H](O)[C@H](OCCCN)O[C@@H]3CO)[C@@H]2O)(C(=O)O)C[C@@H]1O [Neu5,9Ac2α3Galβ4GlcβProNH2] | prefer binding | –
4 | CC(=O)N[C@H]1[C@H]([C@H](O)[C@H](O)COC(C)=O)OC(O)(C(=O)O)C[C@@H]1O (stereo partly shown) [Neu5,9Ac2, 9-O-acetyl-N-acetylneuraminic acid] | – | only Neu5Ac9NAc-fed ones were resistant
